# Data published in patent publication US4504462A, “Process for making a lyophilized product for use in skeletal imaging” (Mallinckrodt, Inc., priority 1982, dated 1985).
# Experiment: skeletal imaging with scintillation camera
# Format: in vivo, adult human subject
# Conditions: component substituted in the kit of Example 1 or Example II; compared with the original kit
# Procedure: An imaging agent is prepared using this kit by adding about 5 ml of a pertechnetate-Tc99m physiological saline with an activity of about 75 mCi, from a commercial technetium source. The kit is agitated until the kit components are dissolved. About 1 ml of the agent is slowly injected, over a period of about 30 seconds, into an adult human subject weighing about 75 kg.
row,Molecule,results when substituted in the kit
1,CC1CC(O)=C(O)C1=O (stereo not drawn) [5-methyl reductic acid],substantially similar results
2,"NCC(O)(P(=O)(O)O)P(=O)(O)O [ethane-1-hydroxy-2-amino-1,1-diphosphonic acid, reference compound]",substantially similar results
3,O=C1CCC(O)=C1O [reductic acid],substantially similar results
4,"CN(C)C(P(=O)(O)O)P(=O)(O)O [methane-N,N-dimethylaminodiphosphonic acid, reference compound]",substantially similar results
5,O=C1O[C@H]([C@H](O)CO)C(O)=C1O [erythorbic acid],substantially similar results
6,O=C1O[C@H]([C@@H](O)CCl)C([O-])=C1O.[Na+] [sodium-6-chloro-6-deoxyascorbate],substantially similar results
7,"CNC(P(=O)(O)O)P(=O)(O)O [methane-N-methylaminodiphosphonic acid, reference compound]",substantially similar results
8,"CC(O)(P(=O)(O)O)P(=O)(O)O [EHDP, ethane-1-hydroxy-1,1-diphosphonic acid, reference compound]",substantially similar results
9,O=C1O[C@H]([C@@H](O)CBr)C([O-])=C1O.[Na+] [sodium-6-bromo-6-deoxyascorbate],substantially similar results
10,O=S(=O)([O-])[O-].[Sn+2] [stannous sulfate],substantially similar results
11,O=C1O[C@H]([C@@H](O)CCl)C(O)=C1O [6-chloro-6-deoxyascorbic acid],substantially similar results
12,O=C1O[C@H]([C@@H](O)CO)C([O-])=C1O.[Na+] [sodium ascorbate],substantially similar results
13,"NC(P(=O)(O)O)P(=O)(O)O [methaneaminodiphosphonic acid, reference compound]",substantially similar results
14,O=C1O[C@H]([C@@H](O)CBr)C(O)=C1O [6-bromo-6-deoxyascorbic acid],substantially similar results
15,"O=P(O)(O)C(O)P(=O)(O)O [HMDP, methanehydroxydiphosphonic acid, reference compound]",substantially similar results
16,O=C([O-])[C@H](O)[C@@H](O)C(=O)[O-].[Sn+2] [stannous tartrate],substantially similar results
17,"O=P(O)(O)CP(=O)(O)O [MDP, methanediphosphonic acid, reference compound]",substantially similar results

# Same assay, conditions: in vivo
row,Molecule,results when substituted in the kit
1,stannous fluoride,substantially similar results
